Source: patent US20260372303A1, “5-Fluoro-4-Imino-3-Methyl-1-Tosyl-3, 4-Dihydropyrimidin-2(1H) -One for Fungicide-Resistant Fungus” (priority 2022, published 2026)

Assays:
[1] = system: Zymoseptoria tritici strain Zt 38-02; experiment: In planta preventive efficacy on wheat cv. Alixan against Zymoseptoria tritici strain Zt 38-02; format: in vivo; details: for Disease Severity Intensity: % of length of 2nd leaf blade, preventive 24 h; for AUDPC: control 1261.4
Outline: (§1)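 BBCH 12 wheat plants sprayed preventively, inoculated 24 h later with calibrated pycnospore suspension; 3 pots of 6 plants per condition, 20/17 °C, 16 h light. Necrosis length on second leaf scored at 15, 21 and 28 dpi; efficacy from trapezoidal AUDPC as % of untreated control.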

[2] = system: Zymoseptoria tritici strain Zt 20; experiment: In planta preventive efficacy on wheat cv. Alixan against Zymoseptoria tritici strain Zt 20; format: in vivo; details: % of length of 2nd leaf blade, preventive 24 h
Outline: as §1

[3] = system: Zymoseptoria tritici strain Zt 61; experiment: In planta preventive efficacy on wheat cv. Alixan against Zymoseptoria tritici strain Zt 61; format: in vivo; details: for Disease Severity Intensity: % of length of 2nd leaf blade, preventive 24 h; for AUDPC: control 1194.9
Outline: as §1

[4] = system: Zymoseptoria tritici strain Zt 19-52; experiment: In planta preventive efficacy on wheat cv. Alixan against Zymoseptoria tritici strain Zt 19-52; format: in vivo; details: % of length of 2nd leaf blade, preventive 24 h
Z. tritici strains = experiment: In planta susceptibility of all Z. tritici strains pathogenic on wheat cv. ALIXAN (conclusions); format: in vivo, Zymoseptoria tritici
Protocol: Winter wheat plants cv. Alixan (Limagrain) at the BBCH 12 growth stage were treated preventively with sterile distilled water (control), ADF-16, penthiopyrad, metconazole or tebuconazole at the rates described in Table 2 with a hand sprayer at 2 bars.
After treatment, wheat plants were left to dry at room temperature for 1 hour and then placed in a climatic chamber: temperature of 24 °C day/18 °C night-photoperiod of 16 h light/8 h dark and a relative humidity of 65%.
Untreated or treated whole wheat plants were inoculated 24-hours post-treatment with a calibrated pycnospore suspension of Z. tritici strains Zt StA, Zt 61, Zt 99, Zt 20, Zt 19-52, and Zt 38-02. Three replicates (pots) of 6 wheat plants each were used for each condition tested. […]
Disease assessments were carried out at 15 days post inoculation (dpi), 21 dpi and 28 dpi by measuring the length of the necrosis on the second leaf blade. The intensity of infection was then determined as a percentage of the total length of 2nd leaf blade.
The fungicide efficacies were determined from the Area Under the Disease Progress Curve (AUDPC) values and expressed as a percentage of the untreated control.
The AUDPC is a quantitative measure of disease intensity over time. […] The AUDPC is determined with the following formula by adding all of the trapezoids: […]

[5] = system: Zymoseptoria tritici strain Zt StA; experiment: In planta preventive efficacy on wheat cv. Alixan against Zymoseptoria tritici strain Zt StA (control strain, sensitive); format: in vivo; details: for Disease Severity Intensity: % of length of 2nd leaf blade, preventive 24 h; for AUDPC: control 781.6
Outline: as §1

[6] = system: Zymoseptoria tritici strain Zt 99; experiment: In planta preventive efficacy on wheat cv. Alixan against Zymoseptoria tritici strain Zt 99; format: in vivo; details: for Disease Severity Intensity: % of length of 2nd leaf blade, preventive 24 h; for AUDPC: control 1352.9
Outline: as §1

[7] = rate N (g a.i./ha): ADF-16 100, penthiopyrad 200, metconazole 90, tebuconazole 250
[8] = rate N/2.5 (g a.i./ha): ADF-16 40, penthiopyrad 80, metconazole 36, tebuconazole 100
[9] = 15 dpi, rate N (g a.i./ha): ADF-16 100, penthiopyrad 200, metconazole 90, tebuconazole 250, control also no disease
[10] = 15 dpi, rate N/2.5 (g a.i./ha): ADF-16 40, penthiopyrad 80, metconazole 36, tebuconazole 100, control also no disease

Cc1ccc(S(=O)(=O)n2cc(F)c(=N)n(C)c2=O)cc1 [ADF-16, 5-fluoro-4-imino-3-methyl-1-tosyl-3,4-dihydropyrimidin-2 (1H)-one]
Disease Severity Intensity ([1]; 15 dpi, rate N (g a.i./ha): ADF-16 100, penthiopyrad 200, metconazole 90, tebuconazole 250, control 36.0): 0.0 +/− 0.0b % | Disease Severity Intensity ([1]; 15 dpi, rate N/2.5 (g a.i./ha): ADF-16 40, penthiopyrad 80, metconazole 36, tebuconazole 100, control 36.0): 0.0 +/− 0.0b % | Disease Severity Intensity ([1]; 21 dpi, rate N (g a.i./ha): ADF-16 100, penthiopyrad 200, metconazole 90, tebuconazole 250, control 84.3): 0.0 +/− 0.0f^ % | Disease Severity Intensity ([1]; 21 dpi, rate N/2.5 (g a.i./ha): ADF-16 40, penthiopyrad 80, metconazole 36, tebuconazole 100, control 84.3): 0.0 +/− 0.0f^ % | Disease Severity Intensity ([1]; 28 dpi, rate N (g a.i./ha): ADF-16 100, penthiopyrad 200, metconazole 90, tebuconazole 250, control 95.7): 0.4 +/− 0.4e % | Disease Severity Intensity ([1]; 28 dpi, rate N/2.5 (g a.i./ha): ADF-16 40, penthiopyrad 80, metconazole 36, tebuconazole 100, control 95.7): 0.0 +/− 0.0e % | Efficacy (from AUDPC, percentage of the untreated control) [1, 7]: 99.9% | AUDPC [1, 7]: 1.3 +/− 0.9e | Efficacy (from AUDPC, percentage of the untreated control) [1, 8]: 100% | AUDPC [1, 8]: 0.0 +/− 0.0e | Disease Severity Intensity [2, 9]: No disease | Disease Severity Intensity [2, 10]: No disease | Disease Severity Intensity ([2]; 21 dpi, rate N (g a.i./ha): ADF-16 100, penthiopyrad 200, metconazole 90, tebuconazole 250, control 77.2): 0.0 +/− 0.0e % | Disease Severity Intensity ([2]; 21 dpi, rate N/2.5 (g a.i./ha): ADF-16 40, penthiopyrad 80, metconazole 36, tebuconazole 100, control 77.2): 0.0 +/− 0.0e % | Disease Severity Intensity ([2]; 28 dpi, rate N (g a.i./ha): ADF-16 100, penthiopyrad 200, metconazole 90, tebuconazole 250, control 95.5): 0.0 +/− 0.0g % | Disease Severity Intensity ([2]; 28 dpi, rate N/2.5 (g a.i./ha): ADF-16 40, penthiopyrad 80, metconazole 36, tebuconazole 100, control 95.5): 7.3 +/− 1.9f % | Disease Severity Intensity [3, 9]: No disease | Disease Severity Intensity [3, 10]: No disease | Disease Severity Intensity ([3]; 21 dpi, rate N (g a.i./ha): ADF-16 100, penthiopyrad 200, metconazole 90, tebuconazole 250, control 63.3): 0.0 +/− 0.0d % | Disease Severity Intensity ([3]; 21 dpi, rate N/2.5 (g a.i./ha): ADF-16 40, penthiopyrad 80, metconazole 36, tebuconazole 100, control 63.3): 3.2 +/− 1.1d % | Disease Severity Intensity ([3]; 28 dpi, rate N (g a.i./ha): ADF-16 100, penthiopyrad 200, metconazole 90, tebuconazole 250, control 88.1): 1.5 +/− 0.3g % | Disease Severity Intensity ([3]; 28 dpi, rate N/2.5 (g a.i./ha): ADF-16 40, penthiopyrad 80, metconazole 36, tebuconazole 100, control 88.1): 14.8 +/− 4.0e % | Efficacy (from AUDPC, percentage of the untreated control) [3, 7]: 99.6% | AUDPC [3, 7]: 5.4 ± 1.2 days | Efficacy (from AUDPC, percentage of the untreated control) [3, 8]: 91.9% | AUDPC [3, 8]: 97.2 ± 5.0 days | Disease Severity Intensity ([4]; 15 dpi, rate N (g a.i./ha): ADF-16 100, penthiopyrad 200, metconazole 90, tebuconazole 250, control 22.0): 0.0 +/− 0.0b % | Disease Severity Intensity ([4]; 15 dpi, rate N/2.5 (g a.i./ha): ADF-16 40, penthiopyrad 80, metconazole 36, tebuconazole 100, control 22.0): 0.0 +/− 0.0b % | Disease Severity Intensity ([4]; 21 dpi, rate N (g a.i./ha): ADF-16 100, penthiopyrad 200, metconazole 90, tebuconazole 250, control 81.7): 0.4 +/− 0.4c % | Disease Severity Intensity ([4]; 21 dpi, rate N/2.5 (g a.i./ha): ADF-16 40, penthiopyrad 80, metconazole 36, tebuconazole 100, control 81.7): 0.3 +/− 0.2c % | Disease Severity Intensity ([4]; 28 dpi, rate N (g a.i./ha): ADF-16 100, penthiopyrad 200, metconazole 90, tebuconazole 250, control 91.0): 2.0 +/− 1.4ef % | Disease Severity Intensity ([4]; 28 dpi, rate N/2.5 (g a.i./ha): ADF-16 40, penthiopyrad 80, metconazole 36, tebuconazole 100, control 91.0): 4.4 +/− 1.7de % | control in planta of Z. tritici strains (Z. tritici strains; 8 strains pathogenic on wheat cv. ALIXAN, 2 doses tested (40 and 100 g a.i./ha)): perfectly controlled | effectiveness (Z. tritici strains; full dose of 100 g a.i./ha, across strains): more than 99% | Disease Severity Intensity [5, 9]: No disease | Disease Severity Intensity [5, 10]: No disease | Disease Severity Intensity ([5]; 21 dpi, rate N (g a.i./ha): ADF-16 100, penthiopyrad 200, metconazole 90, tebuconazole 250, control 36.5): 0.0 +/− 0.0b % | Disease Severity Intensity ([5]; 21 dpi, rate N/2.5 (g a.i./ha): ADF-16 40, penthiopyrad 80, metconazole 36, tebuconazole 100, control 36.5): 0.0 +/− 0.0b % | Disease Severity Intensity ([5]; 28 dpi, rate N (g a.i./ha): ADF-16 100, penthiopyrad 200, metconazole 90, tebuconazole 250, control 77.4): 0.0 +/− 0.0b % | Disease Severity Intensity ([5]; 28 dpi, rate N/2.5 (g a.i./ha): ADF-16 40, penthiopyrad 80, metconazole 36, tebuconazole 100, control 77.4): 0.0 +/− 0.0b % | Efficacy (from AUDPC, percentage of the untreated control) [5, 7]: 100% | AUDPC [5, 7]: 0.0 +/− 0.0b | Efficacy (from AUDPC, percentage of the untreated control) [5, 8]: 100% | AUDPC [5, 8]: 0.0 +/− 0.0b | Disease Severity Intensity ([6]; 15 dpi, rate N (g a.i./ha): ADF-16 100, penthiopyrad 200, metconazole 90, tebuconazole 250, control 47.9): 0.0 +/− 0.0d % | Disease Severity Intensity ([6]; 15 dpi, rate N/2.5 (g a.i./ha): ADF-16 40, penthiopyrad 80, metconazole 36, tebuconazole 100, control 47.9): 0.0 +/− 0.0d % | Disease Severity Intensity ([6]; 21 dpi, rate N (g a.i./ha): ADF-16 100, penthiopyrad 200, metconazole 90, tebuconazole 250, control 81.0): 0.1 +/− 0.1f % | Disease Severity Intensity ([6]; 21 dpi, rate N/2.5 (g a.i./ha): ADF-16 40, penthiopyrad 80, metconazole 36, tebuconazole 100, control 81.0): 0.0 +/− 0.0f % | Disease Severity Intensity ([6]; 28 dpi, rate N (g a.i./ha): ADF-16 100, penthiopyrad 200, metconazole 90, tebuconazole 250, control 92.2): 0.1 +/− 0.1e % | Disease Severity Intensity ([6]; 28 dpi, rate N/2.5 (g a.i./ha): ADF-16 40, penthiopyrad 80, metconazole 36, tebuconazole 100, control 92.2): 1.7 +/− 0.8e % | Efficacy (from AUDPC, percentage of the untreated control) [6, 7]: 99.9% | AUDPC [6, 7]: 1.2 ± 0.3 g | Efficacy (from AUDPC, percentage of the untreated control) [6, 8]: 99.6% | AUDPC [6, 8]: 5.9 ± 0.4 g
